Results from patent US9221900B2, “Methods for identifying safe and functional humanized antibodies” (AC IMMUNE S.A., priority 2010, dated 2015).

Assays:
[1] = test system: mixed cortical cells from P1 rats; assay: Aβ1-42 oligomer cytotoxicity assay, MTT readout; assay type: cell-based, rat
Experimental: FIG. 2 provides graphs and immunocytochemical images corresponding to the experiments described in Example 6.3. […] An MTT assay was used to determine cell viability as described in the Methods section. The means (±SEM) of five independent experiments are shown. *P<0.05, **P<0.01. […] Neurotoxicity following extended Aβ1-42 oligomer treatment was tested by morphological analyses (C).
A non-specific IgG monoclonal antibody was used as a control in all experiments.
Rat primary cortical cultures were prepared from Sprague-Dawley rats (Charles River Laboratories L'Arbresle, France) at post-natal day 1, as described by Meberg and Miller (Meberg and Miller, 2003). Cerebellum and meninges were removed, and cortices were cut into small pieces and dissociated with enzymatic disruption at 37° C. in dissociation buffer (papaine, CaCl2, EDTA, and HEPES; all from Invitrogen, Carlsbad, Calif.). DNase (Invitrogen) was added for 10 min. Following dissociation, dispersed cortical neurons were plated onto poly-L-lysine (0.01%; mol. wt 150,000-300,000; Sigma) coated 6-well, 24-well, or 96-well tissue culture plates. For immunocytochemistry, cells were grown on coated glass coverslips, into 24-well plates. Cells were maintained in Neurobasal media (Invitrogen) without phenol-red, with the addition of L-glutamine (2 mM; Sigma), B27 supplement (Invitrogen), and penicillin/streptomycin (Sigma) in a humidified incubator at 37° C. and 5% CO2. Following 1 h and 30 min in culture, the media was replaced with astrocyte-conditioned medium. After a further 4 days in culture, cell proliferation was blocked by treatment with cytosine arabinoside (Ara-C) at 2.5 μM (Invitrogen). Under these culture conditions, 20% of cells were identified as neurons by NeuN/DAPI staining (not shown). Experiments using mixed cortical cultures were generally performed at days-in-vitro (“DIV”) 6 unless stated otherwise. Enriched microglia prepared from cortex and hippocampus were harvested as described for cortical cultures above. Cortex and hippocampus were put in DMEM containing high glucose and homogenized by pipetting with a 10 mL pipette and then with a syringe. The homogenate was centrifuged for 3 min at 1,000×g, and then resuspended in pre-warmed DMEM containing high glucose containing 10% FCS and penicillin/streptomycin (microglia media). The cell suspension was next transferred to a T75 tissue-culture flask and kept in a humidified incubator at 37° C. and 5% CO2 for 1 week. The flask was shaken to separate microglia from adherent cells, and collected and washed in DMEM. The resulting cells were resuspended in 1 mL microglia media, counted, and plated at 5×10^4 cells/well. To verify microglial enrichment, cells were stained with the astroglial and microglial markers GFAP and Iba1, respectively. Greater than 60% of cells stained positive for Iba1, with no cells staining for both GFAP and Iba1. Pure microglia were prepared from post-natal day 3 CX3CR1-GFP mice (Jackson Laboratories). Cortex and hippocampus were dissected and triturated in DMEM containing high glucose using a 10 mL pipette, and then with an 18 gauge needle. The homogenate was centrifuged for 3 min at 1,000 g, and then resuspended in pre-warmed DMEM containing high glucose, 10% FBS and penicillin/streptomycin (microglia media). The cell suspension was next transferred to a T75 tissue-culture flask and kept in a humidified incubator at 37° C. and 5% CO2 for 7-10 d. Microglia were isolated by shaking, collected and washed in DMEM. The resulting cells were resuspended in 1 mL microglia media, counted, and plated on tissue culture treated glass chamber slides at 5×10^4 cells/well for use in experiments.
The cytotoxicity of Aβ1-42 oligomers was tested on mixed cortical cultures at DIV 5. All antibodies, at a final concentration of 100 μg/mL, were co-incubated with Aβ1-42 oligomers for 30 min in serum-free cell culture medium at 37° C. before treatment of cells. […]

[2] = test system: microglia; assay: Confocal imaging of microglial uptake of Aβ1-42 oligomers; assay type: cell-based, rat; conditions: primary cortical microglia
Experimental: Aβ1-42 oligomers are shown in red, and blue is DAPI staining of DNA to show the microglia itself (A). An apical-to-distal slice was obtained from a three-dimensional image rendered from Z-stacks. Confocal imaging was performed on mixed cortical cells labeled for Aβ (red) and stained with DAPI (blue) as described in the Example Section under Materials and Methods. Microglia were identified and scanned for the maximum fluorescence intensity through a series of confocal stacks representing intracellular locations (B), and the total area of fluorescent signal above a minimum threshold was quantified (C). Each mark on the graph represents the total area of Aβ stained within a single cell. A minimum of 20 cells were analyzed for each treatment condition. Data were compared using one-way ANOVA followed by Tukey post-hoc multiple comparison. Means (±SEM) are shown. […] Red is Iba1 staining, green is HyLite Fluor-488-labeled Aβ1 42, and blue is DAPI staining. […] Statistical analysis was done using one-way ANOVA followed by Tukey post-hoc multiple comparison.
Cells were grown on a glass coverslips. Following treatment, cells were quickly washed with PBS and then fixed with 4% paraformaldehyde for 20 min. After thorough washes, cells were immersed in 100% methanol for 10 min at −20° C. They were then washed again and incubated in a blocking solution, PBS containing 10% normal goat serum for 1 h at room temperature. After an overnight incubation with the primary antibody, cells were washed and incubated for 2 h with the secondary antibody, then washed and mounted on glass slides using ProLong Gold antifade reagent (Invitrogen). Epifluorescence and confocal images were acquired on a LSM 700 inverted microscope from Zeiss, using a 63× lens. Fluorescence intensity was measured in cell bodies delineated by saturated epifluorescence pictures. Z-stacks were rendered into a three-dimensional image using ImageJ 1.42 (National Institutes of Health, freeware) from which an apical to distal slice containing the labeled proteins was obtained. Cells treated with HyLite Fluor-488-tagged Aβ1-42 were treated in the same way except no primary or secondary antibodies were used to label for Aβ1-42.

[3] = biological target: T1, FcγRIIIa-V158 (Homo sapiens, UniProt P08637, F176V); assay: FcγR binding ELISA, FcγRIIIa-V158; conditions: cross-linked IgG mAb
T1 construct: fusion proteins containing the extracellular domain of the receptor γ-chain
T1 sequence (P08637 17-208 F176V): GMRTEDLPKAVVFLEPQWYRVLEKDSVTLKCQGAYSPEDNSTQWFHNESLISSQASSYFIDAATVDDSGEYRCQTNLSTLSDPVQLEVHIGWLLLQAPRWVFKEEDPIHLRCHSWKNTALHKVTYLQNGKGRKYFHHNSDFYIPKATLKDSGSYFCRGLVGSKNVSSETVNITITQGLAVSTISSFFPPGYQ
Experimental: The ability of these different monoclonal antibody backbones to internalize Aβ1-42 oligomers into microglia was then compared using confocal imaging on Aβ1-42 oligomer treated primary cortical microglia. […] To verify that microglia are indeed the cells taking up Aβ1-42 complexed to monoclonal antibodies, the study was repeated using HiLyte Fluor-488 tagged Aβ1-42 and co-stained for the microglial marker Iba1.
(§1) The binding of test antibodies to a panel of human Fcγ receptors (FcγRs) was measured using enzyme-linked immunosorbent assay (ELISA). Human FcγRs (Genentech, Inc., CA) are fusion proteins containing the extracellular domain of the receptor γ-chain with a Gly/6xHis/glutathione S transferase (GST) polypeptide tag at the C terminus. A monoclonal antibody with human IgG1 framework was used as the positive control (IgG1 control) in this experiment. Plates were coated with a mouse monoclonal anti GST antibody (Genentech, Inc.) in a 0.05 M sodium carbonate buffer (pH 9.6) overnight at 4° C. After blocking with an assay buffer containing phosphate buffered saline (PBS), 0.5% BSA, and 0.05% Tween-20, the plates were incubated with FcγRs at room temperature for 1 h. Human FcγRs were immobilized to the plate via interaction with the anti-GST coating. […] Diluted samples were applied as monomeric forms for the high affinity receptor (FcγRIa), or multimeric forms for the low affinity receptors (FcγRIIa, FcγRIIb, and FcγRIIIa). […] The antibodies bound to the FcγRs were detected with horseradish peroxidase (HRP)-conjugated F(ab′)2 fragment of goat anti human F(ab′)2 (Jackson ImmunoResearch Laboratories; West Grove, Pa.). […] The reaction was terminated with 1 M H3PO4, and absorbance at 450 nm with reference at 650 nm was measured on a plate reader (Molecular Devices, Sunnyvale, Calif.). Binding curves were generated by plotting the mean absorbance values from duplicates of sample dilutions against the respective sample absorbance.

[4] = test system: human Fcγ receptors (FcγRIa, FcγRIIa, FcγRIIb, FcγRIIIa); assay: FcγR binding ELISA, panel of human Fcγ receptors; conditions: cross-linked antibody
Experimental: FIG. 10 provides graphs and immunocytochemical images corresponding to the experiments described in Example 6.5. […] These findings are consistent with published data for human IgG4 antibodies (Gessner et al., 1998) and IgG1 antibodies carrying the D265A mutation (Shields et al., 2001).
as §1, with “FcγRIIIa). The multimeric forms of test antibodies were generated by cross linking F(ab′)2 fragment of goat anti human κ-chain (MP Biomedicals, Solon, Ohio), with test monoclonal antibody at an approximate molar ratio of 3:1. The plates were incubated with FcγRs at room temperature for 2 h.” for “FcγRIIIa).”

MABT-IgG1-D265A: same antigen binding sequences as MABT on human IgG1 backbone carrying a D265A mutation that dramatically reduces FcγR-binding
antibody-mediated increase in MTT signal under p38MAPK inhibition ([1]; 10 μM Aβ1-42 oligomers, 100 μg/ml antibody, 1 μM SB239063, 24 h): no effect
reversal of Aβ1-42 oligomer-mediated toxicity ([1]; mixed primary cortical cultures, different IgG backbones): only a non-significant trend towards reversal
Aβ1-42 oligomer internalization into microglia, rank order [2]: MABT-IgG1>MABT>MABT-IgG1-D265A
binding to FcγRIIIa-V158, hierarchy [3]: MABT-IgG>MABT>MABT-IgG1-D265A
binding to FcγRs [4]: substantially reduced binding to all the FcγRs
